According to ChEMBL document CHEMBL1759876, “PNA containing isocytidine nucleobase: synthesis and recognition of double helical RNA” (Bioorg Med Chem Lett, 2011):

Columns and labels:
Format in all cases: nucleic-acid assay
Hairpin ribozyme RNA [1] = experiment: Binding affinity to double helical RNA hairpin HRP1 in sodium acetate buffer at pH 5.5
Hairpin ribozyme RNA [2] = experiment: Binding affinity to double helical RNA hairpin HRP2 in sodium acetate buffer at pH 5.5
Hairpin ribozyme RNA [3] = experiment: Binding affinity to double helical RNA hairpin HRP3 in sodium acetate buffer at pH 5.5
Hairpin ribozyme RNA [4] = experiment: Binding affinity to double helical RNA hairpin HRP4 in sodium acetate buffer at pH 5.5

Cc1cn(CC(=O)N(CCNC(=O)CN(CCNC(=O)CN(CCNC(=O)CN(CCNC(=O)CN(CCNC(=O)[C@@H](N)CCCCN)C(=O)Cn2ccc(N)nc2=O)C(=O)Cn2cc(C)c(=O)[nH]c2=O)C(=O)Cn2ccc(N)nc2=O)C(=O)Cn2ccc(N)nc2=O)CC(=O)NCCN(CC(N)=O)C(=O)Cn2ccc(N)nc2=O)c(=O)[nH]c1=O
Ka (Hairpin ribozyme RNA [1]): 84 ×10⁶ /M
Ka (Hairpin ribozyme RNA [2]): 0.4 ×10⁶ /M
Ka (Hairpin ribozyme RNA [3]): 0.5 ×10⁶ /M
Ka (Hairpin ribozyme RNA [4]): 0.2 ×10⁶ /M

Cc1cn(CC(=O)N(CCNC(=O)CN(CCNC(=O)CN(CCNC(=O)CN(CCNC(=O)[C@@H](N)CCCCN)C(=O)Cn2ccc(N)nc2=O)C(=O)Cn2cc(C)c(=O)[nH]c2=O)C(=O)Cn2ccc(N)nc2=O)CC(=O)NCCN(CC(=O)NCCN(CC(N)=O)C(=O)Cn2ccc(N)nc2=O)C(=O)Cn2cc(C)c(=O)[nH]c2=O)c(N)nc1=O
Ka (Hairpin ribozyme RNA [1]): 0.51 ×10⁶ /M
Ka (Hairpin ribozyme RNA [2]): 0.82 ×10⁶ /M
Ka (Hairpin ribozyme RNA [3]): 1.01 ×10⁶ /M
Ka (Hairpin ribozyme RNA [4]): 0.77 ×10⁶ /M

Cc1cn(CC(=O)N(CCNC(=O)CN(CCNC(=O)CN(CCNC(=O)CN(CCNC(=O)CN(CCNC(=O)[C@@H](N)CCCCN)C(=O)Cn2ccc(N)nc2=O)C(=O)Cn2cc(C)c(=O)[nH]c2=O)C(=O)Cn2ccc(N)nc2=O)C(=O)Cn2cc(C)c(=O)[nH]c2=O)CC(=O)NCCN(CC(N)=O)C(=O)Cn2ccc(N)nc2=O)c(=O)[nH]c1=O
Ka (Hairpin ribozyme RNA [1]): 2.7 ×10⁶ /M
Ka (Hairpin ribozyme RNA [2]): 47 ×10⁶ /M
Ka (Hairpin ribozyme RNA [3]): 0.5 ×10⁶ /M
Ka (Hairpin ribozyme RNA [4]): 0.02 ×10⁶ /M

Cc1cn(CC(=O)N(CCNC(=O)CN(CCNC(=O)CN(CCNC(=O)CN(CCNC(=O)CN(CCNC(=O)[C@@H](N)CCCCN)C(=O)Cn2ccc(N)nc2=O)C(=O)Cn2cc(C)c(=O)[nH]c2=O)C(=O)Cn2ccc(N)nc2=O)C(=O)Cn2cnc3ncnc(N)c32)CC(=O)NCCN(CC(N)=O)C(=O)Cn2ccc(N)nc2=O)c(=O)[nH]c1=O
Ka (Hairpin ribozyme RNA [1]): 6 ×10⁶ /M
Ka (Hairpin ribozyme RNA [2]): 1.6 ×10⁶ /M
Ka (Hairpin ribozyme RNA [3]): 0.7 ×10⁶ /M
Ka (Hairpin ribozyme RNA [4]): 0.05 ×10⁶ /M

Cc1cn(CC(=O)N(CCNC(=O)CN(CCNC(=O)CN(CCNC(=O)CN(CCNC(=O)CN(CCNC(=O)[C@@H](N)CCCCN)C(=O)Cn2ccc(N)nc2=O)C(=O)Cn2cc(C)c(=O)[nH]c2=O)C(=O)Cn2ccc(N)nc2=O)C(=O)Cn2cnc3nc(N)[nH]c(=O)c32)CC(=O)NCCN(CC(N)=O)C(=O)Cn2ccc(N)nc2=O)c(=O)[nH]c1=O
Ka (Hairpin ribozyme RNA [1]): 1.5 ×10⁶ /M
Ka (Hairpin ribozyme RNA [2]): 0.4 ×10⁶ /M
Ka (Hairpin ribozyme RNA [3]): 0.2 ×10⁶ /M
Ka (Hairpin ribozyme RNA [4]): 0.09 ×10⁶ /M
